Data reported in patent US20250171431A1, “HETEROCYCLIC INHIBITORS OF IGF-1R FOR TREATMENT OF DISEASE” (HORIZON THERAPEUTICS IRELAND DAC, priority 2023, published 2025).
pIC50: −log10 of the molar value.

What was measured:
IGF-1R [1] = target: T1, IGF-1R (Homo sapiens (Human), UniProt P08069); test: Example B-1: IGF-1R Assay (PC3 cells, IGF1 stimulation, AlphaLISA); format: cell-based; settings: 200 ng/mL IGF1 stimulation, read-out: Biological Activity against IGF-1R IC50
Method in brief: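 Readout is AlphaLISA signal from lysed PC3 cells, expressed as % inhibition versus vehicle and EC80 controls and banded by IC50. Before lysis, the cells were starved of serum for 2 h, exposed to 3× serially diluted compound for 2 h, and stimulated for 30 min with 200 ng/mL IGF1 (final).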
Target sequence in this assay (P08069 31-1367): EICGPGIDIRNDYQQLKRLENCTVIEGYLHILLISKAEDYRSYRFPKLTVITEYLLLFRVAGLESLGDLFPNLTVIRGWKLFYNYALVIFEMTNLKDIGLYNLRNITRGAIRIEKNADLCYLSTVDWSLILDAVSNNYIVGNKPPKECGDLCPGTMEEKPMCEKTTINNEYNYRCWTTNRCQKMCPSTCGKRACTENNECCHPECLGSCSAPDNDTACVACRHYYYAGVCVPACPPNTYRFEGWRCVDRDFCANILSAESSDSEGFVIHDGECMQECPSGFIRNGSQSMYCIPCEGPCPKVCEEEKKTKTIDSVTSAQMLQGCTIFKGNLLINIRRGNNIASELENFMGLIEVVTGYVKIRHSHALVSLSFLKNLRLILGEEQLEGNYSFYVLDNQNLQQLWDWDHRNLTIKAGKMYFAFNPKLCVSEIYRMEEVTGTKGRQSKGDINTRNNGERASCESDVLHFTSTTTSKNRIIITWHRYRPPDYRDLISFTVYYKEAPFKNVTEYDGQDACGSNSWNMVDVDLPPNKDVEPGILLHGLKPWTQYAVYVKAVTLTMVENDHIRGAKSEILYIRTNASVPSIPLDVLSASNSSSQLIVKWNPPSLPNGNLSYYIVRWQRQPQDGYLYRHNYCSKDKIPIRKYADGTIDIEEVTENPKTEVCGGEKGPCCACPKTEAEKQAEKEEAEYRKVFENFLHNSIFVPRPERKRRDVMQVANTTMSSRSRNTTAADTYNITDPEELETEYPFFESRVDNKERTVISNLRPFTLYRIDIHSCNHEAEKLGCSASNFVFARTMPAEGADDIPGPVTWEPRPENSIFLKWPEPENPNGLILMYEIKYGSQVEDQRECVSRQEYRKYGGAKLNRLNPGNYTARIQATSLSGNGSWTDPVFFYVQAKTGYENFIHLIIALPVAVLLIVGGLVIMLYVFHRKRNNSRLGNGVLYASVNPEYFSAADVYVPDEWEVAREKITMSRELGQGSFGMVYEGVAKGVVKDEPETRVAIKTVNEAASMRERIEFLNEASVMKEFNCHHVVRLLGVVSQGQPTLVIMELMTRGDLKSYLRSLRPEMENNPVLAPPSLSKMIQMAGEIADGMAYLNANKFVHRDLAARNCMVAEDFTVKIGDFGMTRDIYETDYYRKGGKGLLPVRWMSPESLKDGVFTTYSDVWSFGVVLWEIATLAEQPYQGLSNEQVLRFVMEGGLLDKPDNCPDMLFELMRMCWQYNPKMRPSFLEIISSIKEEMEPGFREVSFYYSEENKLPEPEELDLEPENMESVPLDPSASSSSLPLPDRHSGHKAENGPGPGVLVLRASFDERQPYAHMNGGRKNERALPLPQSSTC

IGF-1R [2] = target: T1, IGF-1R; test: Example B-2: IGF-1R Assay (PathHunter cell lines, EC80 agonist challenge); format: cell-based; settings: read-out: IC50 (Biological Activity against IGF-1R)
Description: PathHunter cell lines were expanded from freezer stocks according to standard procedures. Cells were seeded in a total volume of 20 μL into white walled, 384-well microplates and incubated for the appropriate time prior to testing.
Cells are pre-incubated with compound followed by EC80 agonist challenge as follows: • 1. Intermediate dilution of sample stocks was performed to generate 5× sample in assay buffer. • 2. 5 μL of 5× sample was added to cells and incubated at 37° C. for 60 minutes. Vehicle concentration was 1%. • 3. 5 μL of 6×EC80 agonist in assay buffer was added to the cells and incubated at room temperature for 3 hours.
Assay signal was generated through a single addition of 12.5 or 15 μL (50% v/v) of PathHunter Detection reagent cocktail for agonist and antagonist assays respectively, followed by a one hour incubation at room temperature. Microplates were read following signal generation with a PerkinElmer Envision™ instrument for chemilumine-scent signal detection.
Compound activity was analyzed using CBIS data analysis suite (ChemInnovation, CA). Percentage inhibition was calculated using the following formula: % Inhibition=100%×(1−(mean RLU of test sample−mean RLU of vehicle control)/(mean RLU of EC80 control−mean RLU of vehicle control)). The activity for representative examples of the invention is shown in the following table, wherein A: IC50≤500 nM; B: 500 nM<IC50≤2 μM; C: […]≤10 μM; D: IC50>[…].
Target sequence in this assay (P08069 31-1367, species assumed): as the sequence (P08069 31-1367) above

SMILES | pIC50 (IGF-1R [1]) | pIC50 (IGF-1R [2])
CN(C)CC(=O)N1CCc2ccc(Nc3nccc(Nc4cnc5ccc(Cl)cc5c4)n3)cc21 [Compound 129, 1-(6-((4-((6-chloroquinolin-3-yl)amino)pyrimidin-2-yl)amino)indolin-1-yl)-2-(dimethylamino)ethan-1-one] | ≥ 6.30 | ≥ 6.30
CN(C)CC(=O)N1CCc2ccc(Nc3nccc(Nc4cnc5ccc(Br)cc5c4)n3)cc21 [Compound 130, 1-(6-((4-((6-bromoquinolin-3-yl)amino)pyrimidin-2-yl)amino)indolin-1-yl)-2-(dimethylamino)ethan-1-one] | ≥ 6.30 | ≥ 6.30
CN(C)CC1COc2cc(Nc3nccc(Nc4cnc5ccccc5c4)n3)ccc2O1 (stereo not drawn) [Compound 135, N2-(2-((dimethylamino)methyl)-2,3-dihydrobenzo[b][1,4]dioxin-6-yl)-N4-(quinolin-3-yl)pyrimidine-2,4-diamine] | ≥ 6.30 | ≥ 6.30
CN(C)CC1COc2cc(Nc3nccc(Nc4cnc5ccc(Cl)cc5c4)n3)ccc2O1 (stereo not drawn) [Compound 136, N4-(6-chloroquinolin-3-yl)-N2-(2-((dimethylamino)methyl)-2,3-dihydrobenzo[b][1,4]dioxin-6-yl)pyrimidine-2,4-diamine] | ≥ 6.30 | ≥ 6.30
CN(C)CC(=O)N1CCc2ncc(Nc3nccc(Nc4cnc5ccccc5c4)n3)cc21 [Compound 137, 2-(dimethylamino)-1-(6-((4-(quinolin-3-ylamino)pyrimidin-2-yl)amino)-2,3-dihydro-1H-pyrrolo[3,2-b]pyridin-1-yl)ethan-1-one] | ≥ 6.30 | ≥ 6.30
CN(C)CC(=O)N1CCc2ccc(Nc3nccc(Nc4cnc5c(F)c(F)ccc5c4)n3)cc21 [Compound 138, 1-(6-((4-((7,8-difluoroquinolin-3-yl)amino)pyrimidin-2-yl)amino)indolin-1-yl)-2-(dimethylamino)ethan-1-one] | ≥ 6.30 | ≥ 6.30
CN1CC(N2CCc3ccc(Nc4nccc(Nc5cnc6ccccc6c5)n4)cc32)C1 [Compound 139, N2-(1-(1-methylazetidin-3-yl)indolin-6-yl)-N4-(quinolin-3-yl)pyrimidine-2,4-diamine] | ≥ 6.30 | ≥ 6.30
CN(C)CC1COc2ccc(Nc3nccc(Nc4cnc5ccccc5c4)n3)cc2O1 (stereo not drawn) [Compound 140, N2-(3-((dimethylamino)methyl)-2,3-dihydrobenzo[b][1,4]dioxin-6-yl)-N4-(quinolin-3-yl)pyrimidine-2,4-diamine] | ≥ 6.30 | ≥ 6.30
CN(C)CC(=O)N1CCc2ncc(Nc3nccc(Nc4cnc5ccc(Cl)cc5c4)n3)cc21 [Compound 141, 1-(6-((4-((6-chloroquinolin-3-yl)amino)pyrimidin-2-yl)amino)-2,3-dihydro-1H-pyrrolo[3,2-b]pyridin-1-yl)-2-(dimethylamino)ethan-1-one] | ≥ 6.30 | ≥ 6.30
CN(C)CC1COc2ccc(Nc3nccc(Nc4cnc5ccc(Cl)cc5c4)n3)cc2O1 (stereo not drawn) [Compound 142, N4-(6-chloroquinolin-3-yl)-N2-(3-((dimethylamino)methyl)-2,3-dihydrobenzo[b][1,4]dioxin-6-yl)pyrimidine-2,4-diamine] | 5.70 to 6.30 | 5.70 to 6.30
CN(C)CCN1CCc2ccc(Nc3nccc(Nc4cnc5ccccc5c4)n3)cc21 [Compound 143, N2-(1-(2-(dimethylamino)ethyl)indolin-6-yl)-N4-(quinolin-3-yl)pyrimidine-2,4-diamine] | ≥ 6.30 | ≥ 6.30
CN(C)C[C@H]1COc2cc(Nc3nccc(Nc4cnc5ccc(Cl)cc5c4)n3)ccc2O1 [Compound 144, (S)—N4-(6-chloroquinolin-3-yl)-N2-(2-((dimethylamino)methyl)-2,3-dihydrobenzo[b][1,4]dioxin-6-yl)pyrimidine-2,4-diamine] | ≥ 6.30 | ≥ 6.30
CN(C)C[C@@H]1COc2cc(Nc3nccc(Nc4cnc5ccc(Cl)cc5c4)n3)ccc2O1 [Compound 145, (R)—N4-(6-chloroquinolin-3-yl)-N2-(2-((dimethylamino)methyl)-2,3-dihydrobenzo[b][1,4]dioxin-6-yl)pyrimidine-2,4-diamine] | ≥ 6.30 | ≥ 6.30
CN(C)CC(=O)N1CCc2cc(Nc3nccc(Nc4cnc5ccc(Cl)cc5c4)n3)ccc21 [Compound 146, 1-(5-((4-((6-chloroquinolin-3-yl)amino)pyrimidin-2-yl)amino)indolin-1-yl)-2-(dimethylamino)ethan-1-one] | ≥ 6.30 | ≥ 6.30
CN(C)CC(=O)N1CCc2ccc(Nc3nccc(Nc4cnc5cc(F)c(F)cc5c4)n3)cc21 [Compound 147, 1-(6-((4-((6,7-difluoroquinolin-3-yl)amino)pyrimidin-2-yl)amino)indolin-1-yl)-2-(dimethylamino)ethan-1-one] | 5.70 to 6.30 | 5.70 to 6.30
CN(C)CC1CN(C)c2cc(Nc3nccc(Nc4cnc5cc(F)c(F)cc5c4)n3)ccc2O1 (stereo not drawn) [Compound 148, N4-(6,7-difluoroquinolin-3-yl)-N2-(2-((dimethylamino)methyl)-4-methyl-3,4-dihydro-2H-benzo[b][1,4]oxazin-6-yl)pyrimidine-2,4-diamine] | ≥ 6.30 | ≥ 6.30
CN(C)CC(=O)N1CCOc2ccc(Nc3nccc(Nc4cnc5cc(F)c(F)cc5c4)n3)cc21 [Compound 149, 1-(6-((4-((6,7-difluoroquinolin-3-yl)amino)pyrimidin-2-yl)amino)-2,3-dihydro-4H-benzo[b][1.4]oxazin-4-yl)-2-(dimethylamino)ethan-1-one] | ≥ 6.30 | ≥ 6.30
CN1CCOc2ccc(Nc3nccc(Nc4cnc5cc(F)c(F)cc5c4)n3)cc21 [Compound 150, N4-(6,7-difluoroquinolin-3-yl)-N2-(4-methyl-3,4-dihydro-2H-benzo[b][1,4]oxazin-6-yl)pyrimidine-2,4-diamine] | 5.70 to 6.30 | 5.70 to 6.30
CN(C)CC(=O)N1CCOc2cc(Nc3nccc(Nc4cnc5cc(F)c(F)cc5c4)n3)ccc21 [Compound 152, 1-(7-((4-((6,7-difluoroquinolin-3-yl)amino)pyrimidin-2-yl)amino)-2,3-dihydro-4H-benzo[b][1.4]oxazin-4-yl)-2-(dimethylamino)ethan-1-one] | ≥ 6.30 | ≥ 6.30
COc1cc(Nc2nccc(Nc3cnc4cc(F)c(F)cc4c3)n2)c(Cl)cc1O[C@H]1C[C@@H](N(C)C)C1 [Compound 153, N2-(2-chloro-4-((1s,3s)-3-(dimethylamino)cyclobutoxy)-5-methoxyphenyl)-N4-(6,7-difluoroquinolin-3-yl)pyrimidine-2,4-diamine] | ≥ 6.30 | ≥ 6.30
COc1cc(Nc2nccc(Nc3cc4cccc(F)c4[nH]c3=O)n2)cnc1N1CCC(C)(O)CC1 [Compound 159, 8-fluoro-3-((2-((6-(4-hydroxy-4-methylpiperidin-1-yl)-5-methoxypyridin-3-yl)amino)pyrimidin-4-yl)amino)quinolin-2(1H)-one] | ≥ 6.30 | 5.70 to 6.30
COc1cc(Nc2nccc(Nc3cnc4ccc(C(F)F)cc4c3)n2)ccc1O[C@H]1C[C@H](N(C)C)C1 [Compound 162, 4-[6-(difluoromethyl)-3-quinolylamino]-2-{3-methoxy-4-[(1r,3r)-3-(dimethylamino)cyclobutoxy]phenylamino}pyrimidine] | ≥ 6.30 | 5.70 to 6.30
CN(C)CC1COc2cc(Nc3nccc(Nc4cnc5cc(F)c(F)cc5c4)n3)ccc2O1 (stereo not drawn) [Compound 169, 4-(6,7-difluoro-3-quinolylamino)-2-{2-[(dimethylamino)methyl]-2,3-dihydro-1,4-benzodioxin-6-ylamino}pyrimidine] | ≥ 6.30 | ≥ 6.30
Clc1ccc2ncc(Nc3ccnc(Nc4ccc5c(c4)OCCO5)n3)cc2c1 [Compound 170, 4-(6-chloro-3-quinolylamino)-2-(2,3-dihydro-1,4-benzodioxin-6-ylamino)pyrimidine] | 5.70 to 6.30 | 5.70 to 6.30
CN(C)CC1COc2cc(Nc3nccc(Nc4cc5ccccc5nc4C(N)=O)n3)ccc2O1 (stereo not drawn) [Compound 171, 3-((2-((2-((dimethylamino)methyl)-2,3-dihydrobenzo[b][1,4]dioxin-6-yl)amino)pyrimidin-4-yl)amino)quinoline-2-carboxamide] | ≥ 6.30 | ≥ 6.30
CN(C)CC1COc2cc(Nc3nccc(Nc4cnc5ccc(Cl)cc5c4)n3)cnc2O1 (stereo not drawn) [Compound 177, 4-(6-chloro-3-quinolylamino)-2-{3-[(dimethylamino)methyl]-2,3-dihydro-1,4-dioxa-5-aza-7-naphthylamino}pyrimidine] | ≥ 6.30 | ≥ 6.30
CN(C)CC1COc2cc(Nc3nccc(Nc4cnc5ccccc5c4)n3)cnc2O1 (stereo not drawn) [Compound 178, 2-{3-[(dimethylamino)methyl]-2,3-dihydro-1,4-dioxa-5-aza-7-naphthylamino}-4-(3-quinolylamino)pyrimidine] | ≥ 6.30 | ≥ 6.30
